These results are taken from US20250368666A1, “INDAZOLE COMPOUNDS” (TYRA BIOSCIENCES, INC., priority 2022, published 2025).

The subject of assay [1] is MDA-MB-453 cell line (FGFR4-Y367C). In words: Cancer cell line cell viability assay (Cell Titer-Glo), 120 hr. Format: cell-based. The settings on record: Homo sapiens. The gist of the method:
(§1)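 Intracellular ATP was measured by Cell Titer-Glo 2.0 luminescence after cells were incubated with compound dilutions (top 3 μM, 4-fold, 9 doses). Values were expressed relative to DMSO-treated cells and IC50 was calculated from a variable-slope dose-response curve.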
Background: Cellular ATP, detected with luciferase, serves as a proxy for viable cell number.

The test system of assay [2] is HuH7 cell line (FGF19 amplification). The assay is described as above. It is filed as cell-based. The settings on record: Homo sapiens, Huh-7. Put shortly: as §1
The next assay addresses T1, FGFR3 (Homo sapiens, UniProt P22607).
T1 construct: made in house; host or cells: E. coli (BL21-derived), T7 phage
Kind of assay: Kinase binding assay (kinase-tagged T7 phage, affinity beads, qPCR), Kd. The settings on record: read-out: FGFR3 (Kd nM). Put shortly:
(§2)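 T7 phage displaying each kinase, grown in a BL21-derived E. coli host at 32° C until lysis, competed with test compound for biotinylated ligand immobilised on streptavidin beads. Bead-bound kinase was eluted and quantified by qPCR. Kd came from an 11-point 3-fold dilution series fitted to the Hill equation with slope fixed at −1.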
On the technique in general: In qPCR the cycle at which signal appears reflects the starting amount.

A further assay deals with T2, FGFR1 (Homo sapiens, UniProt P11362).
T2 construct: made in house; host or cells: E. coli (BL21-derived), T7 phage
The assay is described as above. Conditions: read-out: FGFR1 (Kd nM). Put shortly:
as §2

A further assay addresses T3, FGFR2 (Homo sapiens, UniProt P21802).
T3 construct: made in house; host or cells: E. coli (BL21-derived), T7 phage
The assay is described as above. Conditions: read-out: FGFR2 (Kd nM). The gist of the method:
as §2

For the next assay, the target named is T4, FGFR4 (Homo sapiens, UniProt P22455).
T4 construct: made in house; host or cells: E. coli (BL21-derived), T7 phage
The description is as above. The settings on record: read-out: FGFR4 (Kd nM). Put shortly:
as §2

In a further assay the target is T5, FGFR3 (V555M) (Homo sapiens, UniProt P22607, V555M).
T5 construct: made in house; host or cells: E. coli (BL21-derived), T7 phage
Described as above. The settings on record: V555M mutant; read-out: FGFR3 (V555M) (Kd nM). The gist of the method:
as §2

In assay [3] the test system is RT112/84 cell line (FGFR3-fusion). In words: Cancer cell line cell viability assay (Cell Titer-Glo), 72 hr. It is filed as cell-based. Conditions: Homo sapiens, RT112/84, RT112/84 cell line (FGFR3-fusion). Put shortly: as §1
For assay [4], the system named is KG-1 cell line (FGFR 1-fusion). Described as above. Format: cell-based. The settings on record: Homo sapiens, KG-1, KG-1 cell line (FGFR1-fusion). Put shortly:
as §1

The test system of assay [5] is KATO-III cell line (FGFR2 amplification). The assay is described as above. It is filed as cell-based. The settings on record: Homo sapiens, KATO III. Put shortly: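 Luminescent ATP read-out (Cell Titer-Glo 2.0) after compound exposure, normalised to DMSO-only wells. Dosing: 9 concentrations, 4-fold steps, top 3 μM, triplicates. IC50 derived by log(inhibitor) vs. response 4-parameter fit.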

T2 sequence (P11362 22-822): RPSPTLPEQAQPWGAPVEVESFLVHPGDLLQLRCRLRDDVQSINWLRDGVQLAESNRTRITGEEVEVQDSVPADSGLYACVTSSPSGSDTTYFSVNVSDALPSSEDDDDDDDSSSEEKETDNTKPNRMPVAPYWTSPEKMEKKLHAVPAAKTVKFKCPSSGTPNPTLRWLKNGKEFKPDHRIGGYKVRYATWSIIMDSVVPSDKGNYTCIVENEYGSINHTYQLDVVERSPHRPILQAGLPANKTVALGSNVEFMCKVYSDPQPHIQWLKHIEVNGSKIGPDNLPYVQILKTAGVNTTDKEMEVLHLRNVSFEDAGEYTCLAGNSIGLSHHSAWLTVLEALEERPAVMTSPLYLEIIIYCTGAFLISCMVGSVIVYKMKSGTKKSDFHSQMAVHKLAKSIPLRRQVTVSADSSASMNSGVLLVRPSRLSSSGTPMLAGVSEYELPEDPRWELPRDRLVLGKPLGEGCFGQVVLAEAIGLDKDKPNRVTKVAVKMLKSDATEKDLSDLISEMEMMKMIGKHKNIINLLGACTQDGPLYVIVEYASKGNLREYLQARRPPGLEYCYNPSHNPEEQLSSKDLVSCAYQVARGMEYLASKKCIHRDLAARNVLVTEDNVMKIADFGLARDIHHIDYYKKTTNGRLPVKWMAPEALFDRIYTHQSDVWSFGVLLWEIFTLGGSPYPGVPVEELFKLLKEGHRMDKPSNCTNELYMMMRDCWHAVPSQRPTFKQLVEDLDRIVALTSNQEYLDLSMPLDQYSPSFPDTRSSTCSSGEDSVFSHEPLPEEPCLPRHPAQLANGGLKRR
T1 sequence (P22607 23-806): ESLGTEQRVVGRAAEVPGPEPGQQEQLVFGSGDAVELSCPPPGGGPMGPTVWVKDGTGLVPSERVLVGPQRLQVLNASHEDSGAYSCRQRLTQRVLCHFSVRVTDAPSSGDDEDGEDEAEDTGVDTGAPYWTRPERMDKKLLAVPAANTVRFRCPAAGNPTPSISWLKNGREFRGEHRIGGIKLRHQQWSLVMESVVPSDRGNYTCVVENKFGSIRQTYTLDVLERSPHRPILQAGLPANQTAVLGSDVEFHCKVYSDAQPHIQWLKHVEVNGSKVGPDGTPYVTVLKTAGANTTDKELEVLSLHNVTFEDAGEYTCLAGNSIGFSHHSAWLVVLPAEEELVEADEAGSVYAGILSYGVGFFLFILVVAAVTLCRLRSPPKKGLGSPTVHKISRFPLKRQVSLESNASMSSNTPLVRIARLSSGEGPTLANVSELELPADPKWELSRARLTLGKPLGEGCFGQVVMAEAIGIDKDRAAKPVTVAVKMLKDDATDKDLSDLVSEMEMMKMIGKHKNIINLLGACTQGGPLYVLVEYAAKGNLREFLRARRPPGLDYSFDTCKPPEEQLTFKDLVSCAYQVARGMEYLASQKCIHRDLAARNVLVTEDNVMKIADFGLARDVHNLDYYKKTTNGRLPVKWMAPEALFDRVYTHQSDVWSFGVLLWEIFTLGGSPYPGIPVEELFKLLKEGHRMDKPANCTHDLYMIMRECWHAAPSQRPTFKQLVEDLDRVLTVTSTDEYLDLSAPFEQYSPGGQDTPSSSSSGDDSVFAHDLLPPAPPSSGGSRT
T4 sequence (P22455 22-802): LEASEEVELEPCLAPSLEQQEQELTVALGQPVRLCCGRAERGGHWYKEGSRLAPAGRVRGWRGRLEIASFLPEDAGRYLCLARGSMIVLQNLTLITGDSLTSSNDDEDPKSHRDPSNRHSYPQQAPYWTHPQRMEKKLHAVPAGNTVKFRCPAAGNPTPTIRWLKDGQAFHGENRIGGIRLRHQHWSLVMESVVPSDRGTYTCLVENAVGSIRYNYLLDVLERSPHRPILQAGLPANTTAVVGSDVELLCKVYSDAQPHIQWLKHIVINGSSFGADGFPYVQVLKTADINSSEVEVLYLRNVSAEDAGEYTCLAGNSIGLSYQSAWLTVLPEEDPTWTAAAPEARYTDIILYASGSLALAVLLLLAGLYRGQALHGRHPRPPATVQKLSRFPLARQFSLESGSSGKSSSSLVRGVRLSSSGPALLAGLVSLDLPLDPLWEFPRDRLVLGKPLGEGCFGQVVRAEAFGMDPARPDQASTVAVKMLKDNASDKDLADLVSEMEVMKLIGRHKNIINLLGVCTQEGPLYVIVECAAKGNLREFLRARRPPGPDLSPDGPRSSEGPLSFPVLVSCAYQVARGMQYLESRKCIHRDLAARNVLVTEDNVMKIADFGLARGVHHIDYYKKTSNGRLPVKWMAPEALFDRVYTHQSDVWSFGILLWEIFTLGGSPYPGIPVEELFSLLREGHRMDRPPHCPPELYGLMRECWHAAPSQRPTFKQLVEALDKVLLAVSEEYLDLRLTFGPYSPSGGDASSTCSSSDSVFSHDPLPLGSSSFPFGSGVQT
T3 sequence (P21802 22-821): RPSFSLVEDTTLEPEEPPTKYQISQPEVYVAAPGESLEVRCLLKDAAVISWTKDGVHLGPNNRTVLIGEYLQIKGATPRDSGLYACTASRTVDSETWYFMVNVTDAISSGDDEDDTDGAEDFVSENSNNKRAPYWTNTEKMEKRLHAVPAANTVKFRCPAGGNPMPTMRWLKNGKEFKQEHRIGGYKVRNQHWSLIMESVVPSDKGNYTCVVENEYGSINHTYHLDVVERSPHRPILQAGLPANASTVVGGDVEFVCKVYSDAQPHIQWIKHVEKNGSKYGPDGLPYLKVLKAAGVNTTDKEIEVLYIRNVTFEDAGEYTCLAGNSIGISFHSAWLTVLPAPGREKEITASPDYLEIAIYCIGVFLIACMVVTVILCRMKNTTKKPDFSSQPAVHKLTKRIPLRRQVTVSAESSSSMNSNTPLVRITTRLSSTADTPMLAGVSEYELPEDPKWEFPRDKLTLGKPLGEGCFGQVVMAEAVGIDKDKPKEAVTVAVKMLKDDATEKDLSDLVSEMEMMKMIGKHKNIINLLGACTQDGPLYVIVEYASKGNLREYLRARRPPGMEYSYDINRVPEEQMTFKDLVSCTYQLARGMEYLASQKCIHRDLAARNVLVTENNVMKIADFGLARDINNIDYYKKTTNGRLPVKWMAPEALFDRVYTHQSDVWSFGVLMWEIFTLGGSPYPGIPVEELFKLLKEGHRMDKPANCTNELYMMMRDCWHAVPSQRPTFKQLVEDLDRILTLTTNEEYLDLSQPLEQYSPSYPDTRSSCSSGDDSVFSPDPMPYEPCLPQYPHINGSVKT
T5 sequence (P22607 23-806 V555M): as the sequence (P22607 23-806) above, with V533M counted along it

As a reminder, the IC50 is the concentration that inhibits the measured activity by half. High values mean weaker potency, low ones greater potency. What is called Kd is the concentration at which binding is half-saturated. For the molecule `CC[C@H](C)NC1(C)CN(c2ncc(-c3n[nH]c4ccc(O[C@H](C)c5c(Cl)cncc5Cl)cc34)cc2F)C1` [Example 141, 1-[5-[5-[(1R)-1-(3,5-dichloro-4-pyridyl)ethoxy]-1H-indazol-3-y1]-3-fluoro-2-pyridyl]-3-methyl-N-[(1S)-1-methylpropyl]azetidin-3-amine], the IC50 in assay [1] lay in the range of 50 to 200 nM; in assay [2], 0.1 to 50 nM; in assay [3], 0.1 to 50 nM; in [4], 50 to 200 nM; in assay [5], 50 to 200 nM. Also, the Kd on FGFR3, on FGFR1, on FGFR2, on FGFR4 and at FGFR3 (V555M) was 1 to 50 nM throughout.
With `CC[C@@H](C)NC1(C)CN(c2ncc(-c3n[nH]c4ccc(O[C@H](C)c5c(Cl)cncc5Cl)cc34)cc2F)C1` [Example 140, 1-[5-[5-[(1R)-1-(3,5-dichloro-4-pyridyl)ethoxy]-1H-indazol-3-yl]-3-fluoro-2-pyridyl]-3-methyl-N-[(1R)-1-methylpropyl]azetidin-3-amine], the IC50 in assay [1] lay within 50 to 200 nM; in [2] it was 0.1 to 50 nM; in assay [3], 0.1 to 50 nM; in assay [4] it was 50 to 200 nM; in assay [5], 50 to 200 nM. Besides, the Kd on FGFR3, at FGFR1, at FGFR2, on FGFR4 and at FGFR3 (V555M) was 1 to 50 nM each time.
For `COc1cc2[nH]nc(-c3cnc(N4CC[C@](C)(N)C4)c(C#N)c3)c2cc1O[C@H](C)c1c(Cl)cncc1Cl` [Example 367, 2-((S)-3-amino-3-methylpyrrolidin-1-yl)-5-(5-((R)-1-(3,5-dichloropyridin-4-yl)ethoxy)-6-methoxy-1H-indazol-3-yl)nicotinonitrile], the IC50 in [1] was 0.1 to 50 nM; in assay [2] it was 0.1 to 50 nM; in assay [3] it was 0.1 to 50 nM; in assay [4], 50 to 200 nM; in assay [5], 0.1 to 50 nM. The Kd at FGFR3, on FGFR1, on FGFR2 and on FGFR4 was 1 to 50 nM in each case.
As for `C[C@@H](Oc1ccc2[nH]nc(-c3cnc(N4CC(CC#N)(NCC5CC5)C4)c(F)c3)c2c1)c1c(Cl)cncc1Cl` [Example 151, 2-[3-(Cyclopropylmethyl-amino)-1-[5-[5-[(1R)-1-(3,5-dichloro-4-pyridyl)ethoxy]-1H-indazol-3-yl]-3-fluoro-2-pyridyl]azetidin-3-yl]acetonitrile], the IC50 in assay [1] was 50 to 200 nM; in [2], 0.1 to 50 nM; in assay [3] it was 0.1 to 50 nM; in assay [4], 50 to 200 nM; in assay [5] it was 50 to 200 nM. Also, the Kd at FGFR3 and on FGFR1 was 1 to 50 nM each time.
`COc1cc2[nH]nc(-c3cnc(N4CC[C@@](C)(N)C4)c(C#N)c3)c2cc1O[C@H](C)c1c(Cl)cncc1Cl` [Example 369, 2-((R)-3-amino-3-methylpyrrolidin-1-yl)-5-(5-((R)-1-(3,5-dichloropyridin-4-yl)ethoxy)-6-methoxy-1H-indazol-3-yl)nicotinonitrile]: the 50% inhibitory concentration (IC50) in assay [1] fell in the range of 0.1 to 50 nM; in [2], 0.1 to 50 nM; in assay [3], 0.1 to 50 nM; in [4], 50 to 200 nM; in assay [5] it was 0.1 to 50 nM. The Kd at FGFR3, on FGFR1, at FGFR2 and at FGFR4 was 1 to 50 nM throughout.
Consider `CC(C)NC1(CC#N)CN(c2ncc(-c3n[nH]c4ccc(O[C@H](C)c5c(Cl)cncc5Cl)cc34)cc2F)C1` [Example 150, (R)-2-(1-(5-(5-(1-(3,5-dichloropyridin-4-yl)ethoxy)-1H-indazol-3-yl)-3-fluoropyridin-2-yl)-3-(isopropylamino)azetidin-3-yl)acetonitrile], for which the half-inhibitory concentration (IC50) in assay [1] lay in the range of 50 to 200 nM; in assay [2] it was 0.1 to 50 nM; in assay [3] it was 0.1 to 50 nM; in assay [4] it was 50 to 200 nM; in assay [5], 0.1 to 50 nM. The Kd on FGFR3 and at FGFR1 was 1 to 50 nM in each case.
